Our source for the EC50 values is patent US20120095012A1, “TOLUIDINE SULFONAMIDES AND THEIR USE” (Elara Pharmaceuticals GmbH, priority 2008, published 2012).

Bounds are passed on as bounds.

For one assay, the system named is MCF-7 human breast adenocarcinoma cells; HRE-bla HCT116 cell line (colorectal carcinoma). In words: Cell proliferation assay (ATPlite luminescence). The assay is classed as cell-based. Particulars: ATPlite readout, cell line not given. As for the experimental part:
MCF-7 human breast adenocarcinoma cells were obtained from ATCC (LGC Promochem). The CellSensor® HRE-bla HCT116 cell line (colorectal carcinoma) was obtained from Invitrogen.
Cells were grown under humidified 95% air, 5% CO2 at 37° C. in Dulbecco's modified Eagle's medium (DMEM: MCF-7) or McCoy's 5A medium (HRE-bla HCT116) supplemented with 10% fetal bovine serum (FBS), 100 U/ml penicillin and 100 μg/ml streptomycin, 2 mM L-glutamine, and blasticidin at 5 μg/ml as a selection marker (for the HRE-bla HCT116 cell line only).
Cell proliferation experiments were carried out in 96-well tissue culture plates with seeding of 2000 cells/well in 100 μl of the relevant medium. Cells were subsequently incubated under the conditions mentioned for 24 h prior to addition of compounds.
To determine the degree of inhibition of cell proliferation, cells were treated with ATPlite solution according to the manufacturer's instructions (PerkinElmer, ATPlite 1-step Luminescence ATP Detection Assay System) and luciferase readout measured on an Envision HTS multilabel plate reader (PerkinElmer) in luminescence mode according to established protocols. Raw data were imported into an ActivityBase database (IDBS, ID Business Solutions) and EC50 values calculated using the IDBS program ActivityBase XE.
Usually EC50 stands for the concentration that produces a half-maximal response. Lower therefore signals a more potent agent. Molecule “N-(4′-cyano-4-methylbiphenyl-3-yl)-6-(dimethylamino)pyridine-3-sulfonamide [Example 27]” came in with an EC50 of 0.5 to 1 µM.

Staying with this assay, now noted: Homo sapiens, ATPlite readout, cell line not given.
In the case of `COc1ccc(S(=O)(=O)Nc2cc(-c3ccc(C#N)cc3)ccc2C)cn1` [Example 4, 6-Methoxy-pyridine-3-sulfonic acid (4′-cyano-4-methyl-biphenyl-3-yl)-amide], the EC50 is < 0.5 µM.
Still for that read-out and setting: under `CCc1ccc(S(=O)(=O)Nc2cc(-c3ccc(C#N)cc3)ccc2C)s1` [Example 5, 5-Ethyl-thiophene-2-sulfonic acid (4′-cyano-4-methyl-biphenyl-3-yl)-amide] stands < 0.5 µM.
Still for that read-out and setting: with `Cc1ccc(-c2ccc(C#N)s2)cc1NS(=O)(=O)c1ccco1` [Example 6, Furan-2-sulfonic acid [5-(5-cyano-thiophen-2-yl)-2-methyl-phenyl]-amide] the figure was 1 to 10 µM; with `COc1ccc(S(=O)(=O)Nc2cc(-c3csc(C#N)c3)ccc2C)cn1` [Example 7, N-(5-(5-cyanothiophen-3-yl)-2-methylphenyl)-6-methoxypyridine-3-sulfonamide], < 0.5 µM; with `Cc1ccc(S(=O)(=O)Nc2cc(-c3ccc(C#N)cc3)ccc2C)s1` [Example 8, N-(4′-cyano-4-methylbiphenyl-3-yl)-5-methylthiophene-2-sulfonamide], < 0.5 µM.
Turning to `Cc1ccc(-c2ccc(C#N)s2)cc1NS(=O)(=O)c1cccs1` [Example 9, N-(5-(5-cyanothiophen-2-yl)-2-methylphenyl)thiophene-2-sulfonamide], the EC50 is < 0.5 µM.
For the molecule `Cc1ccc(-c2ccc(C#N)s2)cc1NS(=O)(=O)c1ccsc1` [Example 10, N-(5-(5-cyanothiophen-2-yl)-2-methylphenyl)thiophene-3-sulfonamide], the EC50 was in the range of 0.5 to 1 µM.
Same read-out and setting: with `Cc1ccc(-c2ccc(C#N)s2)cc1NS(=O)(=O)c1ccc(Cl)s1` [Example 11, 5-chloro-N-(5-(5-cyanothiophen-2-yl)-2-methylphenyl)thiophene-2-sulfonamide] the figure was 0.5 to 1 µM; with `Cc1ccc(-c2ccc(C#N)s2)cc1NS(=O)(=O)c1cn(C)cn1` [Example 12, N-(5-(5-cyanothiophen-2-yl)-2-methylphenyl)-1-methyl-1H-imidazole-4-sulfonamide], 1 to 10 µM; with `Cc1cc(S(=O)(=O)Nc2cc(-c3ccc(C#N)s3)ccc2C)c(C)s1` [Example 13, N-(5-(5-cyanothiophen-2-yl)-2-methylphenyl)-2,5-dimethylthiophene-3-sulfonamide], 1 to 10 µM.
The same measure, in the same setting: with `Cc1ccc(-c2ccc(C#N)s2)cc1NS(=O)(=O)c1cccnc1` [Example 14, N-(5-(5-cyanothiophen-2-yl)-2-methylphenyl)pyridine-3-sulfonamide] the figure was 1 to 10 µM; with `Cc1ccc(-c2ccc(C#N)s2)cc1NS(=O)(=O)c1cn(C)c(C)n1` [Example 15, N-(5-(5-cyanothiophen-2-yl)-2-methylphenyl)-1,2-dimethyl-1H-imidazole-4-sulfonamide], 1 to 10 µM.
Same read-out and setting: with `Cc1ccc(-c2ccc(C#N)s2)cc1NS(=O)(=O)c1ccc(C(F)(F)F)cn1` [Example 16, N-(5-(5-cyanothiophen-2-yl)-2-methylphenyl)-5-(trifluoromethyl)pyridine-2-sulfonamide] the figure was 1 to 10 µM.
The molecule `Cc1ccc(-c2ccc(C#N)s2)cc1NS(=O)(=O)c1c(C)noc1C` [Example 17, N-(5-(5-cyanothiophen-2-yl)-2-methylphenyl)-3,5-dimethylisoxazole-4-sulfonamide] came in with an EC50 of 1 to 10 µM.
`COc1ccc(S(=O)(=O)Nc2cc(-c3ccc(C#N)c(OC)c3)ccc2C)cn1` [Example 18, N-(4′-cyano-3′-methoxy-4-methylbiphenyl-3-yl)-6-methoxypyridine-3-sulfonamide]: the EC50 was < 0.5 µM.
On the same count and under the same terms, with `Cc1cc(S(=O)(=O)Nc2cc(-c3ccc(C#N)s3)ccc2C)c(C(F)(F)F)o1` [Example 19, N-(5-(5-cyanothiophen-2-yl)-2-methylphenyl)-5-methyl-2-(trifluoromethyl)furan-3-sulfonamide] the figure was 1 to 10 µM; with `Cc1ccc(-c2ccc(C#N)cc2)cc1NS(=O)(=O)c1sccc1C` [Example 20, N-(4′-cyano-4-methylbiphenyl-3-yl)-3-methylthiophene-2-sulfonamide], 1 to 10 µM; with `Cc1ccc(-c2ccc(C#N)cc2)cc1NS(=O)(=O)c1ccc(C#N)nc1` [Example 21, 6-cyano-N-(4′-cyano-4-methylbiphenyl-3-yl)pyridine-3-sulfonamide], 1 to 10 µM.
Molecule `Cc1cccc(S(=O)(=O)Nc2cc(-c3ccc(C#N)s3)ccc2C)n1` [Example 22, N-(5-(5-cyanothiophen-2-yl)-2-methylphenyl)-6-methylpyridine-2-sulfonamide] showed an EC50 of 1 to 10 µM.
The same measure, in the same setting: under `Cc1ccc(S(=O)(=O)Nc2cc(-c3ccc(C#N)cc3)ccc2C)cn1` [Example 23, N-(4′-cyano-4-methylbiphenyl-3-yl)-6-methylpyridine-3-sulfonamide] stands < 0.5 µM; under `Cc1ccc(S(=O)(=O)Nc2cc(-c3ccc(C#N)s3)ccc2C)cn1` [Example 24, N-(5-(5-cyanothiophen-2-yl)-2-methylphenyl)-6-methylpyridine-3-sulfonamide], < 0.5 µM.
As to `Cc1ccc(S(=O)(=O)Nc2cc(-c3ccc(C#N)s3)ccc2C)nc1` [Example 25, N-(5-(5-cyanothiophen-2-yl)-2-methylphenyl)-5-methylpyridine-2-sulfonamide], the EC50 was < 0.5 µM.
Take `Cc1ccc(-c2ccc(C#N)cc2)cc1NS(=O)(=O)c1ccc(Cl)nc1` [Example 26, 6-chloro-N-(4′-cyano-4-methylbiphenyl-3-yl)pyridine-3-sulfonamide]: the EC50 is < 0.5 µM.
As for `Cc1ccc(-c2ccc(C#N)s2)cc1NS(=O)(=O)c1ccc(Cl)nc1` [Example 28, 6-chloro-N-(5-(5-cyanothiophen-2-yl)-2-methylphenyl)pyridine-3-sulfonamide], the EC50 is < 0.5 µM.
With `Cc1ccc(-c2ccc(C#N)s2)cc1NS(=O)(=O)c1ccc(N(C)C)nc1` [Example 29, N-(5-(5-cyanothiophen-2-yl)-2-methylphenyl)-6-(dimethylamino)pyridine-3-sulfonamide], the EC50 is < 0.5 µM.

The subject of another assay is HIF mediated transcription. In words: Inhibition of activation of HIF mediated transcription under hypoxic conditions (CellSensor HRE-bla HCT-116 reporter, DFO-induced). The assay is classed as cell-based. Conditions: Homo sapiens; HRE-bla HCT-116 reporter cells, deferoxamine-induced hypoxia, 24 h. The procedure:
Inhibition of an activated HIF signaling response under chemically-induced hypoxic conditions due to compound treatment was determined using the CellSensor® […] HCT-116 stably transfected reporter cell line from Invitrogen according to the manufacturer's instructions. HIF is a transcriptional factor composed of the constitutively expressed HIF 1β subunit and one of three HIFα subunits (HIF1α, HIF2α, HIF3α). This assay is responsive towards HIFα activity in general. In one example, HIF-1, when stabilized by hypoxic conditions, upregulates several genes to promote cell survival in low-oxygen conditions. These include glycolysis enzymes, which allow ATP synthesis in an oxygen-independent manner, and vascular endothelial growth factor (VEGF), which promotes angiogenesis. HIF-1 acts by binding to HIF-responsive elements (HREs) in promoters that generally contain the sequence NCGTG.
Cells were maintained as described previously and seeded into 384-well, clear-bottom plates (Corning 3712) at 15000 cells/well in 32 μl assay medium (Opti-MEM [Invitrogen], 0.5% FBS, 100 U/ml penicillin, 100 μg/ml streptomycin, 0.1 mM non-essential amino acids [NEAA], 1 mM sodium pyruvate, 5 mM HEPES [pH 7.3]). Following a 2 h incubation period, compounds (4 μl) were subsequently added to the cells at 10× concentrations in 5% DMSO and incubated under normal conditions for 30 min. To induce hypoxic conditions, 4 μl of a 2 mM deferoxamine (DFO) solution was added to the cells followed by 24 h incubation under standard assay conditions (as described). Control wells included wells containing only medium (no cells) and wells treated with 0.5% DMSO instead of compound.
Prior to the readout, the Substrate Loading Solution was prepared as described in the manufacturer's protocol and 10 μl added to each well. Following a further 2 h incubation period at room temperature and in the dark, fluorescence was measured at two wavelengths (blue channel: ex. 409 nm, em. 460 nm; green channel: ex. 409 nm, em. 530 nm) on a PerkinElmer Envision HTS. For the analysis, the average signal of the cell-free wells at 460 nm and 530 nm was first subtracted from the blue and green channel data, respectively. The blue/green emission ratios were then calculated for each well, dividing the background-corrected blue emission values by the background-corrected green emission values. IC50 values were determined from these ratios using GraphPad Prism (Prism 5, GraphPad software, Inc.).
With `COc1ccc(S(=O)(=O)Nc2cc(-c3csc(C#N)c3)ccc2C)cn1` [Example 7, N-(5-(5-cyanothiophen-3-yl)-2-methylphenyl)-6-methoxypyridine-3-sulfonamide], the EC50 is < 0.5 µM.
Take `Cc1ccc(S(=O)(=O)Nc2cc(-c3ccc(C#N)cc3)ccc2C)s1` [Example 8, N-(4′-cyano-4-methylbiphenyl-3-yl)-5-methylthiophene-2-sulfonamide]: the EC50 was < 0.5 µM.
The same measure, in the same setting: under `COc1ccc(S(=O)(=O)Nc2cc(-c3ccc(C#N)c(OC)c3)ccc2C)cn1` [Example 18, N-(4′-cyano-3′-methoxy-4-methylbiphenyl-3-yl)-6-methoxypyridine-3-sulfonamide] stands < 0.5 µM.
Consider `Cc1ccc(S(=O)(=O)Nc2cc(-c3ccc(C#N)cc3)ccc2C)cn1` [Example 23, N-(4′-cyano-4-methylbiphenyl-3-yl)-6-methylpyridine-3-sulfonamide], for which the EC50 was < 0.5 µM.
For the molecule `Cc1ccc(S(=O)(=O)Nc2cc(-c3ccc(C#N)s3)ccc2C)cn1` [Example 24, N-(5-(5-cyanothiophen-2-yl)-2-methylphenyl)-6-methylpyridine-3-sulfonamide], the EC50 is < 0.5 µM.
